Source: publication PMC3688963, “Biochemical Characterization of Hypothetical Proteins from Helicobacter pylori” (PLoS ONE, 2013)

Target: T1, HP1079 (Helicobacter pylori, UniProt O25711)
T1 construct: gene HP_1079; native protein captured with GTP-coated nano-particles; His6 recombinant also made
T1 sequence (O25711 1-370): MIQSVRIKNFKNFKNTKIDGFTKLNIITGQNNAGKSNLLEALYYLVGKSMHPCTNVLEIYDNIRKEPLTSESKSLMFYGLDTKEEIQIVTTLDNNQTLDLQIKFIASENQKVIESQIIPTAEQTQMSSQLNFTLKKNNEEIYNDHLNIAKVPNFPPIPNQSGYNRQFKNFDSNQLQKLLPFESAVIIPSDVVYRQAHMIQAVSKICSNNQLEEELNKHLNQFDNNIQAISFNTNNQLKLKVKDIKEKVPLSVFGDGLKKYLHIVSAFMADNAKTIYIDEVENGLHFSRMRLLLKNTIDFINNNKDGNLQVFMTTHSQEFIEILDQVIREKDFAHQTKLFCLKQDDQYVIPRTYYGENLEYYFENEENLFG
Assay: phosphate release, malachite green
Format: biochemical
Conditions: 10 mM MgCl2, 10% glycerol, 100 mM sodium acetate pH 6.0, 30°C; read-out: Km (mM)^bc
From the text: phosphate release, malachite green on HP1079

Nc1ncnc2c1ncn2[C@@H]1O[C@H](COP(=O)(O)OP(=O)(O)OP(=O)(O)O)[C@@H](O)[C@H]1O [ATP]
Km: 1.02 ± 0.05 mM
